Experimental data published in US6552022B1, “Benzamide derivatives and their use as ApoB-100 secretion inhibitors” (SmithKline Beecham Corporation, priority 1998, dated 2003).

`CC(C)c1ccc(-c2ccccc2C(=O)Nc2ccc(N3CCN(Cc4cccc(C#N)c4)CC3)cc2)cc1` gave a melting point of 133 to 135 °C.
With `Cc1ccc(-c2ccc(C(F)(F)F)cc2)c(C(=O)Nc2ccc(N3CCN(Cc4cccc(C#N)c4)CC3)cc2)c1` the melting point was 120 to 124 °C.
In the case of `COc1ccc(-c2ccc(C(F)(F)F)cc2)c(C(=O)Nc2ccc(N3CCN(Cc4cccc(C#N)c4)CC3)cc2)c1`, the melting point is reported as 151 to 155 °C.
In the case of `CCc1ccc(-c2ccccc2C(=O)Nc2ccc(N3CCN(Cc4cccc(C#N)c4)CC3)cc2)cc1`, the melting point is reported as 118 to 122 °C.
`COc1ccc(-c2ccccc2C(=O)Nc2ccc(N3CCN(Cc4cccc(C#N)c4)CC3)cc2)cc1` showed a melting point of 124 to 128 °C.
Work on `N#Cc1cccc(CN2CCN(c3ccc(NC(=O)c4ccccc4-c4cccc(C(F)(F)F)c4)cc3)CC2)c1` yielded a melting point of 117 to 121 °C.
In the case of `Cc1ccc(-c2ccccc2C(=O)Nc2ccc(N3CCN(Cc4cccc(C#N)c4)CC3)cc2)cc1C`, the melting point is reported as 140 to 144 °C.
`Cc1ccc(-c2ccccc2C(=O)Nc2ccc(N3CCN(Cc4cccc(C#N)c4)CC3)cc2)c(C)c1` gave a melting point of 72 to 76 °C.
`COc1ccc(-c2ccccc2C(=O)Nc2ccc(N3CCN(Cc4cccc(C#N)c4)CC3)cc2)cc1OC` showed a melting point of 116 to 120 °C.
For `O=C(Nc1ccc(N2CCN(Cc3ccncc3)CC2)cc1)c1ccccc1-c1ccc(C(F)(F)F)cc1`, the melting point was 194 to 196 °C.
Compound `COc1cccc(CN2CCN(c3ccc(NC(=O)c4ccccc4-c4ccc(C(F)(F)F)cc4)cc3)CC2)c1` (hydrate or solvate) has a melting point of 168 to 170 °C.
`O=C(Nc1ccc(N2CCN(Cc3cccc(F)c3)CC2)cc1)c1ccccc1-c1ccc(C(F)(F)F)cc1` (hydrate or solvate) showed a melting point of 189 to 190.5 °C.
Work on `O=C(Nc1ccc(N2CCN(Cc3ccccn3)CC2)cc1)c1ccccc1-c1ccc(C(F)(F)F)cc1` (hydrate or solvate) yielded a melting point of 168 to 170 °C.
With `N#Cc1cccc(CN2CCN(c3ccc(NC(=O)c4ccccc4-c4ccccc4)cc3)CC2)c1` (hydrate or solvate) [Example 11, Biphenyl-2-carboxylic acid (4-[4-(3-cyano-benzyl)-piperazin-1-yl]-phenyl]-amide] the melting point was 169 to 171 °C.
For `N#Cc1cccc(CN2CCN(c3ccc(NC(=O)c4ccccc4Oc4ccccc4)cc3)CC2)c1` (hydrate or solvate) [Example 14, N-[4-[4-(3-Cyano-benzyl)-piperazin-1-yl]-phenyl]-2-phenoxy-benzamide], the melting point was 133 to 134 °C.
`N#Cc1cccc(CN2CCN(c3ccc(NC(=O)c4ccccc4-c4ncc(-c5ccccc5)o4)cc3)CC2)c1` (hydrate or solvate) [Example 15, N-[4-[4-(3-Cyano-benzyl)-piperazin-1-yl]-phenyl]-2-(5-phenyl-oxazol-2-yl)-benzamide] showed a melting point of 209 to 211 °C.
In the case of `O=C(Nc1ccc(N2CCN(Cc3nccs3)CC2)cc1)c1ccccc1-c1ccc(C(F)(F)F)cc1` (hydrate or solvate) [Example 59, 4′-Trifluoromethyl-biphenyl-2-carboxylic acid [4-(4-thiazol-2-ylmethyl-piperazin-1-yl)-phenyl]-amide], the melting point is reported as 187 to 189 °C.
Work on `CC(C)c1ccc(-c2cc(Cl)ccc2C(=O)Nc2ccc(N3CCN(Cc4cccc(C#N)c4)CC3)cc2)cc1` [Example 7, 5-Chloro-4′-isopropyl-biphenyl-2-carboxylic acid [4-[4-(3-cyano-benzyl)-piperazin-1-yl]-phenyl]-amide] yielded a melting point of 188 to 190 °C.
In the case of `COc1cccc(C(=O)Nc2ccc(N3CCN(Cc4cccc(C#N)c4)CC3)cc2)c1-c1ccc(C(F)(F)F)cc1` [Example 8, 6-Methoxy-4′-trifluoromethyl-biphenyl-2-carboxylic acid [4-[4-(3-cyano-benzyl)-piperazin-1-yl]-phenyl]-amide], the melting point is reported as 215 to 217 °C.
In the case of `Cc1ccc(C(=O)Nc2ccc(N3CCN(Cc4cccc(C#N)c4)CC3)cc2)c(-c2ccc(C(F)(F)F)cc2)c1` [Example 9, 5-Methyl-4′-trifluoromethyl-biphenyl-2-carboxylic acid [4-[4-(3-cyano-benzyl)-piperazin-1-yl]-phenyl]-amide], the melting point is reported as 166 to 168 °C.
For `N#Cc1cccc(CN2CCN(c3ccc(NC(=O)c4ccc(Cl)cc4-c4ccc(C(F)(F)F)cc4)cc3)CC2)c1` [Example 10, 5-Chloro-4′-trifluoromethyl-biphenyl-2-carboxylic acid [4-[4-(3-cyano-benzyl)-piperazin-1-yl]-phenyl]-amide], the melting point was 164 to 165 °C.
`COc1ccc(C(=O)Nc2ccc(N3CCN(Cc4cccc(C#N)c4)CC3)cc2)c(-c2ccccc2)c1` [Example 12, 5-Methoxy-biphenyl-2-carboxylic acid [4-[4-(3-cyano-benzyl)-piperazin-1-yl]-phenyl]-amide] gave a melting point of 159 to 161 °C.
In the case of `N#Cc1cccc(CN2CCN(c3ccc(NC(=O)c4ccccc4-c4ccc(F)cc4)cc3)CC2)c1` [Example 23, 4′-Fluoro-biphenyl-2-carboxylic acid [4-[4-(3-cyano-benzyl)-piperazin-1-yl]-phenyl]-amide], the melting point is reported as 200 to 202 °C.
In the case of `N#Cc1cccc(CN2CCN(c3ccc(NC(=O)c4ccccc4OCc4ccc(C(F)(F)F)cc4)cc3)CC2)c1` [Example 27, N-[4-[4-(3-Cyano-benzyl)-piperazin-1-yl]-phenyl]-2-(4-trifluoromethyl-benzyloxy)-benzamide], the melting point is reported as 190 to 191 °C.
Work on `COc1cccc(C(=O)Nc2ccc(N3CCN(Cc4cccc(C#N)c4)CC3)cc2)c1OCc1ccc(C(F)(F)F)cc1` [Example 28, N-[4-[4-(3-Cyano-benzyl)-piperazin-1-yl]-phenyl]-3-methoxy-2-(4-trifluoromethyl-benzyloxy)-benzamide] yielded a melting point of 118 to 119.5 °C.
`COc1cccc(C(=O)Nc2ccc(N3CCN(Cc4cccc(C#N)c4)CC3)cc2)c1OCc1ccc(F)cc1` [Example 29, N-[4-[4-(3-Cyano-benzyl)-piperazin-1-yl]-phenyl]-2-(4-fluoro-benzyloxy)-3-methoxy-benzamide] gave a melting point of 118 to 120 °C.
Compound `COc1cccc(C(=O)Nc2ccc(N3CCN(Cc4cccc(C#N)c4)CC3)cc2)c1OCCc1ccccc1` [Example 30, N-[4-[4-(3-Cyano-benzyl)-piperazin-1-yl]-phenyl]-3-methoxy-2-phenethyloxy-benzamide] has a melting point of 140 to 142 °C.
With `COc1cccc(C(=O)Nc2ccc(N3CCN(Cc4cccc(C#N)c4)CC3)cc2)c1OCCC1CCCCC1` [Example 31, N-[4-[4-(3-Cyano-benzyl)-piperazin-1-yl]-phenyl]-2-(2-cyclohexyl-ethoxy)-3-methoxy-benzamide] the melting point was 102 to 104 °C.
Work on `N#Cc1cccc(CN2CCN(c3ccc(NC(=O)c4ccccc4OCCC4CCCCC4)cc3)CC2)c1` [Example 32, N-[4-[4-(3-Cyano-benzyl)-piperazin-1-yl]-phenyl]-2-(2-cyclohexyl-ethoxy)-benzamide] yielded a melting point of 119 to 121 °C.
For `COc1cccc(C(=O)Nc2ccc(N3CCN(Cc4cccc(C#N)c4)CC3)cc2)c1OCCCc1ccccc1` [Example 33, N-[4-[4-(3-Cyano-benzyl)-piperazin-1-yl]-phenyl]-3-methoxy-2-(3-phenyl-propoxy)-benzamide], the melting point was 134 to 136 °C.
`N#Cc1cccc(CN2CCN(c3cccc(NC(=O)c4ccccc4-c4ccc(C(F)(F)F)cc4)c3)CC2)c1` [Example 36, 4′-Trifluoromethyl-biphenyl-2-carboxylic Acid [3-[4-(3-cyano-benzyl)-piperazin-1-yl]-phenyl]-amide] gave a melting point of 170 to 172 °C.
